# Measured values from US6232450A, “Inhibition of human fucosyltransferases with N-linked Lewis-x and LacNAc analogs” (The Scripps Research Institute, priority 1999, dated 2001).
# Tested on: not given
# Experiment: not given
# Details: known from literature (Hanozet et al.); cited from earlier work
row,Compound,pKa
1,C[C@@H]1N[C@H](COCc2ccccc2)[C@@H](OCc2ccccc2)[C@H](OCc2ccccc2)[C@@H]1OCc1ccccc1 [compound 5],unusually low

# Biological target: T1, FucT V (Homo sapiens, UniProt Q11128)
# T1 sequence (Q11128 1-374): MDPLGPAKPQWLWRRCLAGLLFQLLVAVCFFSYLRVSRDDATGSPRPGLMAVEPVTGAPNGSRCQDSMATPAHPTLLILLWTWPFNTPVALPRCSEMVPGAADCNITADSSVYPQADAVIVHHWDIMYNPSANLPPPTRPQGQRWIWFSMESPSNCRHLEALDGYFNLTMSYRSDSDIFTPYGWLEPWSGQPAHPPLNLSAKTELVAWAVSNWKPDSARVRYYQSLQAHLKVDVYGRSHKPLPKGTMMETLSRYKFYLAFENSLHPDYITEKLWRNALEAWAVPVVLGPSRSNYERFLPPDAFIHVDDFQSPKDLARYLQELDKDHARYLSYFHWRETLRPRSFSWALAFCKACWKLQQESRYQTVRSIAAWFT
# Experiment: Test whether inhibitor is a slow substrate or an inactivator of FucT V (pre-incubation, then GDP-[U-14C]-fucose transfer)
# Assay type: biochemical
# Details: 0.010 mM inhibitor, 2.1 munits FucT V, 0.30 mM LacNAc-b-O-(CH2)5CO2CH3, 10 mM MnCl2, 100 mM MES pH 6.0, incubation 0-80 min at room temperature
# Experimental: A 0.350 mL solution that contained 10 mM MnCl2, 2.1 munits FucT V, 0.30 mM LacNAc-b-O-(CH2)5 CO2 CH3, 0.010 mM inhibitor (7a, 7b, 7c, 8a, 8b, or 8c), and 100 mM MES (pH 6.0). This solution was subject to incubation at room temperature for various time periods (0, 3, 10, 20, 30, 60, 80 min). After the incubation time, a 0.050 mL aliquot was removed and GDP-[U-^14 C]-fucose was added to a final concentration of 0.050 mM to initiate the fucosyltransfer reaction. After a 30 minute reaction time period, the solution was passed through a Dowex 1 column and the amount of product determined.
row,slow substrate or inactivator of FucT V,Compound
1,not a slow substrate or an inactivator,CCCO[C@@H]1O[C@H](COCc2ccccc2)[C@@H](O)[C@H](NCCN2[C@H](COCc3ccccc3)[C@@H](OCc3ccccc3)[C@H](OCc3ccccc3)[C@H](OCc3ccccc3)[C@@H]2C)[C@H]1NC(C)=O [7a]
2,not a slow substrate or an inactivator,CCCO[C@@H]1O[C@H](CO)[C@@H](O)[C@H](N(C)CCN2[C@H](CO)[C@@H](O)[C@H](O)[C@H](O)[C@@H]2C)[C@H]1NC(C)=O [7b]
3,not a slow substrate or an inactivator,CCCO[C@@H]1O[C@H](CO)[C@@H](O)[C@H](NCCN2[C@H](CO)[C@@H](O)[C@H](O)[C@H](O)[C@@H]2C)[C@H]1NC(C)=O [7c]
4,not a slow substrate or an inactivator,CCCO[C@@H]1O[C@H](COCc2ccccc2)[C@@H](O[C@@H]2O[C@H](CO)[C@H](O)[C@H](O)[C@H]2O)[C@H](NCCN2[C@H](COCc3ccccc3)[C@@H](OCc3ccccc3)[C@H](OCc3ccccc3)[C@H](OCc3ccccc3)[C@@H]2C)[C@H]1NC(C)=O [8a]
5,not a slow substrate or an inactivator,CCCO[C@@H]1O[C@H](CO)[C@@H](O[C@@H]2O[C@H](CO)[C@H](O)[C@H](O)[C@H]2O)[C@H](N(C)CCN2[C@H](CO)[C@@H](O)[C@H](O)[C@H](O)[C@@H]2C)[C@H]1NC(C)=O [8b]
6,not a slow substrate or an inactivator,CCCO[C@@H]1O[C@H](CO)[C@@H](O[C@@H]2O[C@H](CO)[C@H](O)[C@H](O)[C@H]2O)[C@H](NCCN2[C@H](CO)[C@@H](O)[C@H](O)[C@H](O)[C@@H]2C)[C@H]1NC(C)=O [8c]
